Columns and labels:
paclitaxel-treated rats [1] = test: Paclitaxel-induced mechanical allodynia (von Frey test) after i.v. administration; format: in vivo, rat; conditions: single acute administration 1 mg/kg i.v., adult male Sprague Dawley rats, 0-75 min after injection (FIG. 1)
From the text: Each animal was placed in a chamber with a mesh metal floor covered by a plastic dome that enabled the animal to walk freely, but not to jump. The mechanical stimulus was then delivered in the mid-plantar skin of left hind paw using an electronic von Frey apparatus (37400 Dynamic Plantar Aesthesiometer, Ugo Basile, Comerio, Varese, Italy). The cut-off was set at 50 g, while the increasing force rate (ramp duration) was set at 20 s. In the single administration protocol, pain threshold measurements have been performed before (pre-dose) and at regular intervals after treatment. In the repeated treatment protocol, the pre-test value was measured 13 h after the last administration; afterward the animals received a new administration and measures were performed at the described times. Results are expressed in […] and represent the mean±S.E.M. of mechanical thresholds.
(§1) Paclitaxel (2 mg/kg i.p.) was administered on days 1, 3, 5 and 8. Test compounds were dissolved in saline and administered intravenously at the dose of 1 mg/kg to adult male Sprague-Dawley rats (Charles River, Italy, 220-250 g weight). Data were obtained at 0-75 minutes after injection and are expressed as the mean±s.e.m. of six animals. *P<0.05 and **<0.01 vs vehicle+paclitaxel treated rats; °P<0.05 and ^°°P<0.01 vs. NT24336 (R) treated group. […] *P<0.05 and **<0.01 vss vehicle+paclitaxel treated rats.

paclitaxel-treated rats [2] = test: Paclitaxel-induced peripheral sensory neuropathy model, hyperalgesia (paw pressure) after i.v. administration; format: in vivo, rat
From the text: Results are expressed as the minimum dose (via the indicated route) at which a statistically-significant difference is observed when compared to time-matched injured rats receiving a vehicle administration by the same route. An analysis of variance, ANOVA, followed by Fisher's protected least significant difference procedure for post hoc comparison, was used to verify significance between two means of hyperalgesic behavioral results from the Randall & Selitto apparatus paw pressure test (“anti-hyperalgesia”) or from the Von Frey test (“mechanical allodynia”) or from the Cold Plate test (“cold allodynia”). P values 0.05 were considered significant. This definition applies to any doses specified herein as inhibiting “in a statistically significant manner”.
Paw mechanical sensitivity was determined using a Randall & Selitto apparatus (Randall and Selitto, 1957) exerting a force that increases at constant rate (32 g/s). The stimulus causing paw withdrawal was evaluated before and at different times after treatment. Results represent the mean of mechanical thresholds for paw withdrawal expressed as grams. To avoid possible damage to the rat paw the maximum applied force was set at 240 g. In the single administration protocol, paw pressure tests were performed before (pre-dose) and at regular intervals after treatment.
as §1

Row | SMILES | Effect on paclitaxel-induced mechanical allodynia (von Frey test) (paclitaxel-treated rats [1]; 1 mg/kg) | Effect on paclitaxel-induced mechanical allodynia (von Frey test) (paclitaxel-treated rats [1]) | Lowest dose at which paclitaxel-induced hyperalgesia is inhibited in a statistically significant manner (P < 0.05) (paclitaxel-treated rats [2]; 15 min after administration) | Lowest dose at which paclitaxel-induced hyperalgesia is inhibited in a statistically significant manner (P < 0.05) (paclitaxel-treated rats [2]; 30 min after administration) | Lowest dose at which paclitaxel-induced hyperalgesia is inhibited in a statistically significant manner (P < 0.05) (paclitaxel-treated rats [2]; 45 min after administration)
1 | O=C1CCC2CN(S(=O)(=O)c3ccccc3F)CCN12 (racemic) [R:S mixture 1:1, 2-(2-fluorobenzenesulfonyl)hexahydropyrrolo[1,2-a]pyrazin-6-one] | marginally effective | – | – | – | –
2 | O=C1CCC2CN(S(=O)(=O)c3ccccc3F)CCN12 (stereo not drawn) [NT-24781, 2-(2-fluorobenzenesulfonyl)hexahydropyrrolo[1,2-a]pyrazin-6-one] | – | almost inactive | >3 mg/kg | >3 mg/kg | >3 mg/kg
3 | O=C1CCC2CN(S(=O)(=O)c3ccccc3F)CCN12 (racemic) [R:S mixture 3:1, 2-(2-fluorobenzenesulfonyl)hexahydropyrrolo[1,2-a]pyrazin-6-one] | the most active one | – | – | – | –

From patent US20220047587A1, “SYNERGISTIC COMPOSITIONS COMPRISING R-2-(SUBSTITUTED-SULFONYL)-HEXAHYDRO-PYRROLO[1,2-A]PYRAZIN-6(2H)-ONES AND S-2-(SUBSTITUTED-SULFONYL)-HEXAHYDRO-PYRROLO[1,2-A]PYRAZIN-6(2H)-ONES IN A NON-RACEMIC RATIO” (Metys Pharmaceuticals AG, priority 2018, published 2022)
